# Source: patent publication US20230172940A1, “METHODS OF EXTENDING LIFESPAN BY ADMINISTERING FERROPTOSIS INHIBITORS” (COLLABORATIVE MEDICINAL DEVELOPMENT, LLC, priority 2020, published 2023)
# Counter-ions that a name gives are not always drawn.
# Key:
# Assay type in all cases: in vivo, Caenorhabditis elegans
# [1] = tested on: dead cells within live C. elegans; test: Visualization of cell death with propidium iodide; settings: for cell death (propidium iodide), preceding organismal death: aged cohorts or young animals treated with DEM, 4-day old and 6 and 8 day old adults; for cell death (animals with any dead cells): at 6 and 8 days of age
# Protocol: The red-fluorescent propidium iodide (PI)^o was used to visualize dead cells within live C. elegans after DEM treatment and during aging. Populations were incubated for 24 h at 25° C. with PI (a 10 μL volume of 0.25 mg/mL solution added to the bacterial lawn on 50 mm NGM plates) prior to the described age or with concurrent exposure to 10 mM DEM (as described above) and PI. For aging experiments^o animals were visualized at Day 6 and Day 8. Cohorts of live animals (i.e. showing spontaneous or touch-provoked movement) were isolated and mounted under glass coverslips on 2% agarose pads without anesthetic. Imaging were captures with on a Leica DMI3000B inverted microscope^o DsRed filter set and a DFC 3000G digital.
# Differences between the proportion of live animals with fluorescently labelled nuclei in control versus Lip-1 and SIH treatment, either aged or exposed to DEM, were compared using a z-test.
# [2] = tested on: Fe^2+/Fe(total) in anterior intestinal cells; test: XANES imaging of iron speciation; settings: for age-related increase in the Fe^2+ fraction: anterior intestinal region
# Protocol: Adult C. elegans were removed from NGM, washed four times in excess ice-cold S-basal (0.1 M NaCl; 0.05 M KHPO4 at pH 6.0). Samples were transferred onto 0.5 μm-thick silicon nitride (Si3N4) window (Silson), excess buffer wicked away and then the slide was frozen in situ under a laminar stream of 100° K. dry nitrogen (N2) gas.
# The beam energy was selected using a Si(311) double-crystal monochromator with a resolution of ˜0.5 eV. !XANES imaging was achieved by recording Fe XRF at 106 incident energies spanning the Fe Kedge (7112 eV). Measurement energy interval was commensurate with anticipated structure in the XANES:
# As for XFM, !XANES measurements used a beam spot ^˜2×2 jim but data was recorded using continuous scanning at 0.2 mm sec^−1 (binned at 2 jim intervals). Transit time through each virtual pixel was 10 ms and the incident X-ray intensity at 7455 eV was ^˜1.67×10^10 photons s^−1. These imaging parameters gave a total dose associated with the qXANES measurement estimated at ^˜5 MGy. This value is commensurate with doses typically delivered during bulk X-ray absorption spectroscopy. qXANES Analysis
# The XANES spectra from an iron foil (50.1 jig cm^−2, Micromatter Canada) was measured to monitor the energy calibration of the beamline. The maxima of the first peak in the derivative spectra of the iron foil was subsequently defined as 7112.0 eV. The energy stability of beamline has been determined at <0.25 eV over 24 hrs making energy drift over the course of a scan negligible. Consistency of the measured edge positions in conjunction with stability of beam position and flux recorded in ion chambers upstream the specimen position provide confidence that energy stability was high through the duration of the experiment. Small position drifts were aligned by cross-correlation of the calcium map which remains essentially constant throughout the energy series.
# The aligned qXANES image series is stack of images, one per incident energy allowing the XANES of individual cells to be assessed. Previous work has shown that the distribution of calcium is a useful marker for the position of C. elegans intestinal cells, and we used this information to identify regions of interest in the qXANES stack corresponding to anterior intestinal cells. Anterior intestinal cells were chosen due to their consistent and robust iron content.
# As all points on the specimen represent a heterogenous mixture of iron binding species the resulting XANES spectra are admixtures with contributions from all of these components. The technical particulars of the XFM beamline (being primarily designed for elemental mapping) are not optimized for high resolution spectroscopy and our XANES spectra are relatively sparse. For iron K-edge XANES the abrupt increase in absorption coefficient at the critical threshold obscures the presence of […] and 1s→4p electronic transitions. It has been shown that the relative intensity of these transitions provides the proportional contribution of Fe^2+ and Fe^3+ to the XANES and can be assessed by interrogating the first derivative of the XANES spectra.
# [3] = tested on: C. elegans; test: Movement; settings: for maximum velocity, 25% Percentile / maximum velocity, 75% Percentile / maximum velocity, Maximum / maximum velocity, Mean / maximum velocity, Median / maximum velocity, Minimum / mean velocity, 25% Percentile / mean velocity, 75% Percentile / mean velocity, Maximum / mean velocity, Mean / mean velocity, Median / mean velocity, Minimum / total distance traveled, 25% Percentile / total distance traveled, 75% Percentile / total distance traveled, Maximum / total distance traveled, Mean / total distance traveled, Median / total distance traveled, Minimum: 250 μM SIH or 200 μM Lip-1, 25° C; for total distance traveled, 25% Percentile / total distance traveled, 75% Percentile / total distance traveled, Maximum / total distance traveled, Mean / total distance traveled, Median / total distance traveled, Minimum: 30 second recording; for age-related decline in mean velocity: Kruskal-Wallis ANOVA H(7)=339.2, p<0.0001; for maximum velocity of aging animals: in vivo
# Protocol: A developmentally synchronous population, derived from eggs laid over a 2-hour window, were cultured on NGA media at 25° C. for 48 h, and then as young adult worms were transferred onto three treatment plates for an additional 24 h. The treatment plates included NGM+0.5% (v/v) DMSO (vehicle control, Ctl), NGM+250 μM SIH, and NGM+200 μM Lip-1 (as described above).
# Single worms were transferred to a 55 mm NGA assay plate devoid of a bacterial lawn, without a lid, and left to recover from the transfer for 2 minutes. Movement of the adults was then recorded using a stereomicroscope (Leica M80) with transmitted illumination from below. A 30 second video recording was captured using a 3 MP DFC290 HD digital camera (Leica Microsystems) at a rate of 30 frames per second. Pixel length was calibrated using a 25 μm grid slide (Microbrightfield, Inc). Recorded series were analysed using the wrMTrck plugin for ImageJ (www.phage.dk/plugins) and Fiji (a distribution of ImageJ).
# The maximum velocity achieved was expressed as mm per second (as derived from the distance between displaced centroids per second). Additional metrics of movement were determined including mean velocity (mm s^−1) and (total) distance travelled (mm). These variables were collated in Prism (v7.0a GraphPad Software) and presented as a scatter plot with medians and interquartile range.
# [4] = TJ1060, Day 8, anterior intestinal cells
# [5] = aged animals under intervention
smiles,measurement,setting,value
"Clc1cccc(CNC2=Nc3ccccc3NC23CCNCC3)c1 [Lip-1, N-[(3-chlorophenyl)methyl]-spiro[piperidine-4,2′(1′H)-quinoxalin]-3′-amine]","cell death (propidium iodide), preceding organismal death",[1],significantly attenuated
same,cell death (animals with any dead cells),[1],completely suppressed
same,Mean Fe^2+/Fe(total),[2]; [4],0.231
same,Fe^2+ fraction of the total iron,[2]; [5],≈ 0.2
same,age-related increase in the Fe^2+ fraction,[2],normalized to that of a young animal
same,"maximum velocity, 25% Percentile",[3]; Day 4,0.2711 mm per second
same,"maximum velocity, 75% Percentile",[3]; Day 4,0.4861 mm per second
same,"maximum velocity, Maximum",[3]; Day 4,0.7204 mm per second
same,"maximum velocity, Mean",[3]; Day 4,0.37 mm per second
same,"maximum velocity, Median",[3]; Day 4,0.3762 mm per second
same,"maximum velocity, Minimum",[3]; Day 4,0.06351 mm per second
same,"mean velocity, 25% Percentile",[3]; Day 4,0.05892 mm s-1
same,"mean velocity, 75% Percentile",[3]; Day 4,0.1839 mm s-1
same,"mean velocity, Maximum",[3]; Day 4,0.2606 mm s-1
same,"mean velocity, Mean",[3]; Day 4,0.1244 mm s-1
same,"mean velocity, Median",[3]; Day 4,0.1349 mm s-1
same,"mean velocity, Minimum",[3]; Day 4,0.01219 mm s-1
same,"total distance traveled, 25% Percentile",[3]; Day 4,1.797 mm
same,"total distance traveled, 75% Percentile",[3]; Day 4,5.397 mm
same,"total distance traveled, Maximum",[3]; Day 4,7.817 mm
same,"total distance traveled, Mean",[3]; Day 4,3.685 mm
same,"total distance traveled, Median",[3]; Day 4,4.126 mm
same,"total distance traveled, Minimum",[3]; Day 4,0.07633 mm
same,"maximum velocity, 25% Percentile",[3]; Day 8,0.1478 mm per second
same,"maximum velocity, 75% Percentile",[3]; Day 8,0.2452 mm per second
same,"maximum velocity, Maximum",[3]; Day 8,0.5563 mm per second
same,"maximum velocity, Mean",[3]; Day 8,0.2084 mm per second
same,"maximum velocity, Median",[3]; Day 8,0.1922 mm per second
same,"maximum velocity, Minimum",[3]; Day 8,0.05622 mm per second
same,"mean velocity, 25% Percentile",[3]; Day 8,0.03386 mm s-1
same,"mean velocity, 75% Percentile",[3]; Day 8,0.06818 mm s-1
same,"mean velocity, Maximum",[3]; Day 8,0.1644 mm s-1
same,"mean velocity, Mean",[3]; Day 8,0.05407 mm s-1
same,"mean velocity, Median",[3]; Day 8,0.04763 mm s-1
same,"mean velocity, Minimum",[3]; Day 8,0.008319 mm s-1
same,"total distance traveled, 25% Percentile",[3]; Day 8,1.001 mm
same,"total distance traveled, 75% Percentile",[3]; Day 8,2.092 mm
same,"total distance traveled, Maximum",[3]; Day 8,4.926 mm
same,"total distance traveled, Mean",[3]; Day 8,1.627 mm
same,"total distance traveled, Median",[3]; Day 8,1.451 mm
same,"total distance traveled, Minimum",[3]; Day 8,0.2338 mm
same,age-related decline in mean velocity,[3],attenuates the age-related decline in mean velocity
same,maximum velocity of aging animals,[3],markedly improved
"CCOC(=O)/C=C\C(=O)OCC [DEM, Diethyl maleate]",Fe^2+ fraction of the total iron,"[2]; 4 day old wild type worms, lethal glutathione depletion by DEM",about 0.3
same,Mean Fe^2+/Fe(total),"[2]; N2, Day 4 + DEM",0.310
same,Fe^2+/Fe(total),[2]; wild type (N2) animals treated with DEM,markedly increased
"O=C(N/N=C/c1ccccc1O)c1ccncc1 [SIH, Salicylaldehyde isonicotinoyl hydrazone]","cell death (propidium iodide), preceding organismal death",[1],significantly attenuated
same,cell death (animals with any dead cells),[1],completely suppressed
same,Mean Fe^2+/Fe(total),[2]; [4],0.236
same,Fe^2+ fraction of the total iron,[2]; [5],≈ 0.2
same,age-related increase in the Fe^2+ fraction,[2],normalized to that of a young animal
same,"maximum velocity, 25% Percentile",[3]; Day 4,0.3442 mm per second
same,"maximum velocity, 75% Percentile",[3]; Day 4,0.4755 mm per second
same,"maximum velocity, Maximum",[3]; Day 4,0.7127 mm per second
same,"maximum velocity, Mean",[3]; Day 4,0.392 mm per second
same,"maximum velocity, Median",[3]; Day 4,0.3733 mm per second
same,"maximum velocity, Minimum",[3]; Day 4,0.105 mm per second
same,"mean velocity, 25% Percentile",[3]; Day 4,0.1307 mm s-1
same,"mean velocity, 75% Percentile",[3]; Day 4,0.1824 mm s-1
same,"mean velocity, Maximum",[3]; Day 4,0.2629 mm s-1
same,"mean velocity, Mean",[3]; Day 4,0.1528 mm s-1
same,"mean velocity, Median",[3]; Day 4,0.1545 mm s-1
same,"mean velocity, Minimum",[3]; Day 4,0.02713 mm s-1
same,"total distance traveled, 25% Percentile",[3]; Day 4,3.977 mm
same,"total distance traveled, 75% Percentile",[3]; Day 4,5.513 mm
same,"total distance traveled, Maximum",[3]; Day 4,6.951 mm
same,"total distance traveled, Mean",[3]; Day 4,4.619 mm
same,"total distance traveled, Median",[3]; Day 4,4.766 mm
same,"total distance traveled, Minimum",[3]; Day 4,0.8402 mm
same,"maximum velocity, 25% Percentile",[3]; Day 8,0.174 mm per second
same,"maximum velocity, 75% Percentile",[3]; Day 8,0.3506 mm per second
same,"maximum velocity, Maximum",[3]; Day 8,0.6458 mm per second
same,"maximum velocity, Mean",[3]; Day 8,0.2847 mm per second
same,"maximum velocity, Median",[3]; Day 8,0.2513 mm per second
same,"maximum velocity, Minimum",[3]; Day 8,0.1028 mm per second
same,"mean velocity, 25% Percentile",[3]; Day 8,0.04028 mm s-1
same,"mean velocity, 75% Percentile",[3]; Day 8,0.1029 mm s-1
same,"mean velocity, Maximum",[3]; Day 8,0.1739 mm s-1
same,"mean velocity, Mean",[3]; Day 8,0.07262 mm s-1
same,"mean velocity, Median",[3]; Day 8,0.05813 mm s-1
same,"mean velocity, Minimum",[3]; Day 8,0.02239 mm s-1
same,"total distance traveled, 25% Percentile",[3]; Day 8,1.224 mm
same,"total distance traveled, 75% Percentile",[3]; Day 8,3.193 mm
same,"total distance traveled, Maximum",[3]; Day 8,5.235 mm
same,"total distance traveled, Mean",[3]; Day 8,2.192 mm
same,"total distance traveled, Median",[3]; Day 8,1.784 mm
same,"total distance traveled, Minimum",[3]; Day 8,0.6912 mm
same,age-related decline in mean velocity,[3],attenuates the age-related decline in mean velocity
same,maximum velocity of aging animals,[3],markedly improved
